Assay results published in patent US6218431A, “Substituted biphenyls” (Bayer Corporation, priority 1997, dated 2001).

target: T1, glucagon receptor (Homo sapiens, UniProt P47871); assay: glucagon receptor binding assay (125I-glucagon, CHO-HGR membranes); settings: 20 μM; reported where 20 μM did not reduce glucagon binding by 50%
T1 construct: expressed in transfected cells; host or cells: Chinese Hamster Ovary cells (CHO-HGR), membranes
Procedure, shortened: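 Membranes from CHO cells expressing glucagon receptor (10 ug protein) in Tris pH 7.4 buffer with EDTA, BSA and bacitracin, incubated with test compound and 125I-glucagon (9 fmol) 60 min at room temperature. Bound radioactivity counted after filtration; nonspecific binding defined with 1 μM native glucagon; 0.5% DMSO.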

T1 sequence (P47871 26-477): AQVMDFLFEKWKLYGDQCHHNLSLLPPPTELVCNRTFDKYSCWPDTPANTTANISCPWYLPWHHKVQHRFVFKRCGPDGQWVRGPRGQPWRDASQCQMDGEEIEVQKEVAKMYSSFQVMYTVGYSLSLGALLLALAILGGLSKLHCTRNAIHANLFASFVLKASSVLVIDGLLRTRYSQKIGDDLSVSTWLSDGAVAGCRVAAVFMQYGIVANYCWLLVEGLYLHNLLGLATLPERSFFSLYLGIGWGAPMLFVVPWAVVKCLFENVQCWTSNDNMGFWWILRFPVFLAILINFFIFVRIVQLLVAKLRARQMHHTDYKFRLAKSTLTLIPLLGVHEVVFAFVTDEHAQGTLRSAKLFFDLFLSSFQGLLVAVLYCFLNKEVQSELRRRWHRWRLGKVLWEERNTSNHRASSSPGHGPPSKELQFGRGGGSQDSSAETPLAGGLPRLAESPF

In order of falling inhibition at 20 µM:
1. CCCCCc1c(C(C)C)nc(C(C)C)c(CNCC)c1-c1ccc(F)cc1 [Example 123, 2,6-Diisopropyl-3-(ethylamino)methyl-4-(4-fluorophenyl)-5-pentylpyridine]  49.2%
2. CC(C)c1nc(C(C)C)c(CN2CCCC2)c(-c2ccc(F)cc2)c1CO [Example 71, 2,6-Diisopropyl-3-hydroxymethyl-4-(4-fluorophenyl)-5-(pyrrolindino-methyl)pyridine]  46.3%
3. CCCC=Cc1c(C(C)C)nc(C(C)C)c(CO)c1-c1cccc(F)c1 [Example 127, 2,6-Diisopropyl-3-hydroxymethyl-4-(3-fluorophenyl)-5-(pent-1-enyl)-pyridine]  45.5%
4. CC(C)c1nc(C(C)C)c(CN2CCC(c3ccccc3)CC2)c(-c2ccc(F)cc2)c1CO [Example 72]  42.1%
5. CC(C)c1nc(C(C)C)c(CN2CCOCC2)c(-c2ccc(F)cc2)c1CO [Example 69, 2,6-Diisopropyl-3-hydroxymethyl-4-(4-fluorophenyl)-5-(morpholinomethyl)pyridine]  40.2%
6. CCCCN(CCCC)Cc1c(C(C)C)nc(C(C)C)c(CO)c1-c1ccc(F)cc1 [Example 80, 2,6-Diisopropyl-3-hydroxymethyl-4-(4fluorophenyl)-5-(dibutylamino)-methylpyridine]  38.8%
7. CCCCCc1c(C(C)C)nc(C(C)C)c(CNC)c1-c1ccc(F)cc1 [Example 120, 2,6-Diisopropyl-3-methylaminomethyl-4-(4-fluorophenyl)-5-pentyl-pyridine]  37%
8. CC(C)c1nc(C(C)C)c(CCCN(C)C)c(-c2ccc(F)cc2)c1CO [Example 89, 2,6-Diisopropyl-3-hydroxymethyl-4-(4fluorophenyl)-5-[(3-dimethyl-amino)propyl]pyridine]  36%
9. CCCCCc1c(C(C)C)nc(C(C)C)c(CO)c1-c1ccc(C(F)(F)F)cc1 [Example 126, 2,6-Diisopropyl-3-hydroxymethyl-4-[(4-trifluoromethyl)phenyl]-5-pentylpyridine]  35.3%
10. CC(C)c1nc(C(C)C)c(CN2CCN(c3ccccc3)CC2)c(-c2ccc(F)cc2)c1CO [Example 75, 2,6-Diisopropyl-3-hydroxymethyl-4-(4-fluorophenyl)-5-[(4-phenylpiperazin-1-yl)methyl]pyridine]  34.2%
11. CCC/C=C/c1c(C(C)C)nc(C(C)C)c(CO)c1-c1ccc(C(F)(F)F)cc1 [Example 125, 2,6-Diisopropyl-3-hydroxymethyl-4-[(4-trifluoromethyl)phenyl]-5(pent-1-enyl)pyridine]  31.6%
12. CCCCCc1c(C(C)C)nc(C(C)C)c(CCO)c1-c1ccc(F)cc1 [Example 119, 2,6-Diisopropyl-3-(2-hydroxyethyl)-4-(4fluorophenyl)-5-pentylpyridine]  30.2%
13. CC(C)c1nc(C(C)C)c(CCCCCCCN(C)C)c(-c2ccc(F)cc2)c1CO [Example 90]  29.1%
14. CC(C)c1nc(C(C)C)c(CN2CCC(N3CCCCC3)CC2)c(-c2ccc(F)cc2)c1CO [Example 74, 2,6-Diisopropyl-3-hydroxymethyl-4-(4-fluorophenyl)-5-[(4-piperidinopiperidin-1-yl)methyl]pyridine]  27.1%
15. CCCCCc1c(C(C)C)nc(C(C)C)c(CN)c1-c1ccc(F)cc1 [Example 121, 2,6-Diisopropyl-3-aminomethyl-4-(4fluorophenyl)-5-pentylpyridine]  26.2%
16. CC(C)c1nc(C(C)C)c(CCCCO)c(-c2ccc(F)cc2)c1CO [Example 88, 2,6-Diisopropyl-3-hydroxymethyl-4-(4-fluorophenyl)-5-(4-hydroxy-butyl)pyridine]  24.8%
17. COC(=O)c1c(C(C)C)nc(C(C)C)c(CN2CCC(N3CCCCC3)CC2)c1-c1ccc(F)cc1 [Example 73, Methyl-2,6-diisopropyl-4-(4-fluorophenyl)-5-(4piperidinopiperidin-1-yl)methyl-3-pyridinecarboxylate]  17.5%
18. CC(C)c1nc(C(C)C)c(CCCCCCCCC(=O)O)c(-c2ccc(F)cc2)c1CO [Example 91]  14.2%
19. CC(C)c1nc(C(C)C)c(CCCC(=O)O)c(-c2ccc(F)cc2)c1CO [Example 92, 2,6-Diisopropyl-3-hydroxymethyl-4-(4-fluorophenyl)-5-(3carboxypropyl)pyridine]  11.6%
20. CCCCCc1c(C(C)C)nc(C(C)C)c(CN(C)C)c1-c1ccc(F)cc1 [Example 122, 2,6-Diisopropyl-3-(dimethylamino)methyl-4-(4-fluorophenyl)-5-pentyl-pyridine]  7.54%
21. CC(C)c1nc(C(C)C)c(Cn2ccnc2)c(-c2ccc(F)cc2)c1CO [Example 76, 2,6-Diisopropyl-3-hydroxymethyl-4-(4-fluorophenyl)-5-(imidazol-1-yl)-methylpyridine]  5.18%

same assay, conditions: 125I-glucagon; 60 min at room temperature; read-out: IC50

In order of falling IC50:
1. CC(C)c1nc(C(C)C)c(CSc2ccc([N+](=O)[O-])cc2)c(-c2ccc(F)cc2)c1CO [Example 68, 2,6-Diisopropyl-3-hydroxymethyl-4-(4-fluorophenyl)-5-[(4-nitrophenyl)-thio]methylpyridine]  13 µM
2. CC(C)c1nc(C(C)C)c(CN2CCCCC2)c(-c2ccc(F)cc2)c1CO [Example 70, 2,6-Diisopropyl-3-hydroxymethyl-4-(4-fluorophenyl)-5-(piperidinomethyl)pyridine]  12 µM
3. CC(C)c1nc(C(C)C)c(CN(C)C)c(-c2ccc(F)cc2)c1CO [Example 79, 2,6-Diisopropyl-3-hydroxymethyl-4-(4-fluorophenyl)-5-(dimethylamino)-methylpyridine]  10 µM
4. CC(C)c1nc(C(C)C)c(CNC2CCCCC2)c(-c2ccc(F)cc2)c1CO [Example 78, 2,6-Diisopropyl-3-hydroxymethyl-4-(4-fluorophenyl)-5-(cyclohexylamino)methylpyridine]  7.5 µM
5. Cc1c(C(C)C)nc(C(C)C)c(CO)c1-c1ccc(F)cc1 [Example 81]  7.5 µM
6. CC(C)c1nc(C(C)C)c(CNC2CC2)c(-c2ccc(F)cc2)c1CO [Example 77, 2,6-Diisopropyl-3-hydroxymethyl-4-(4-fluorophenyl)-5-(cyclopropyl-amino)methylpyridine]  6 µM
7. Cc1cc(C)cc(SCc2c(C(C)C)nc(C(C)C)c(CO)c2-c2ccc(F)cc2)c1 [Example 61, 2,6-Diisopropyl-3-hydroxymethyl-4-(4-fluorophenyl)-5-[(3,5dimethylphenyl)thio]methylpyridine]  3.4 µM
8. CCCCCc1c(C(C)C)nc(C(C)C)c(CO)c1-c1cccc(F)c1 [Example 128, 2,6-Diisopropyl-3-hydroxymethyl-4-(3-fluorophenyl)-5-pentylpyridine]  3 µM
9. CC(C)c1nc(C(C)C)c(CC=Cc2ccccc2)c(-c2ccc(F)cc2)c1CO [Example 82, 2,6-Diisopropyl-3-hydroxymethyl-4-(4-fluorophenyl)-5-(3-phenyl-2-propenyl)pyridine]  1.9 µM
10. Cc1ccccc1CCCc1c(C(C)C)nc(C(C)C)c(CO)c1-c1ccc(F)cc1 [Example 84, 2,6-Diisopropyl-3-hydroxymethyl-4-(4-fluorophenyl)-5-[3-(2-methylphenyl)propyl]pyridine]  1.9 µM
11. C=CCc1c(C(C)C)nc(C(C)C)c(CO)c1-c1ccc(F)cc1 [Example 87, 2,6-Diisopropyl-3-hydroxymethyl-4-(4fluorophenyl)-5-(2-propenyl)-pyridine]  1.9 µM
12. CC(C)c1ccc(SCc2c(C(C)C)nc(C(C)C)c(CO)c2-c2ccc(F)cc2)cc1 [Example 63, 2,6-Diisopropyl-3-hydroxymethyl-4-(4-fluorophenyl)-5-[(4-isopropyl-phenyl)thio]methylpyridine]  1.7 µM
13. COc1ccccc1SCc1c(C(C)C)nc(C(C)C)c(CO)c1-c1ccc(F)cc1 [Example 60, 2,6-Diisopropyl-3-hydroxymethyl-4-(4-fluorophenyl)-5-[(2-methoxy-phenyl)thio]methylpyridine]  1.6 µM
14. Cc1cccc(CCCc2c(C(C)C)nc(C(C)C)c(CO)c2-c2ccc(F)cc2)c1 [Example 85, 2,6-Diisopropyl-3-hydroxymethyl-4-(4-fluorophenyl)-5-[3-(3-methyl-5-phenyl)propyl]pyridine]  1.5 µM
15. CCc1ccc(SCc2c(C(C)C)nc(C(C)C)c(CO)c2-c2ccc(F)cc2)cc1 [Example 62, 2,6-Diisopropyl-3-hydroxymethyl-4-(4-fluorophenyl)-5-[(4-ethyl-phenyl)thio]methylpyridine]  1.1 µM
16. CC(C)c1nc(C(C)C)c(CSCc2ccccc2)c(-c2ccc(F)cc2)c1CO [Example 64]  1.1 µM
17. CSCc1c(C(C)C)nc(C(C)C)c(CO)c1-c1ccc(F)cc1 [Example 67, 2,6-Diisopropyl-3-hydroxymethyl-4-(4-fluorophenyl)-5-(methylthio)-methylpyridine]  1.1 µM
18. Cc1ccc(CCCc2c(C(C)C)nc(C(C)C)c(CO)c2-c2ccc(F)cc2)cc1 [Example 86, 2,6-Diisopropyl-3-hydroxymethyl-4-(4-fluorophenyl)-5-[3-(4methyl-phenyl)propyl]pyridine]  1.1 µM
19. CC(C)c1nc(C(C)C)c(CSc2cccc(F)c2)c(-c2ccc(F)cc2)c1CO [Example 59, 2,6-Diisopropyl-3-hydroxymethyl-4-(4-fluorophenyl)-5-[(3-fluoro-phenyl)thio]methylpyridine]  1 µM
20. CCCSCc1c(C(C)C)nc(C(C)C)c(CO)c1-c1ccc(F)cc1 [Example 66, 2,6-Diisopropyl-3-hydroxymethyl4-(4-fluorophenyl)-5-(propylthio)-methylpyridine]  1 µM
21. CC(C)c1nc(C(C)C)c(CSCCc2ccccc2)c(-c2ccc(F)cc2)c1CO [Example 65, 2,6-Diisopropyl-3-hydroxymethyl-4-(4-fluorophenyl)-5-[(phenethyl)-thiomethyl]pyridine]  0.75 µM
22. CC(C)c1nc(C(C)C)c(CCCc2ccccc2)c(-c2ccc(F)cc2)c1CO [Example 83]  0.65 µM
